In patent publication US20220117266A1, “NICKEL CHELATION THERAPY” (priority 2019, published 2022):

Assays:
[1] = tested on: C. jejuni (strain 81-176, ATCC BAA-2151); assay: Growth inhibition, solid plates (CFU); format: cell-based, Campylobacter jejuni
Aβ40 peptide = Aβ40 peptide (Homo sapiens, UniProt P05067); assay: Isothermal titration calorimetry; format: binding; parameters: purchased rPeptides, Watkinsville, Ga., USA kit #A-1180-1; host or cells: E. coli; settings: 1 mM DMG injected instead of nickel; data not shown
Excerpt: Nickel binding to human recombinant Aβ40 peptide is confirmed by isothermal titration calorimetry. Isothermal titration calorimetry (ITC) has been already used to analyze copper or zinc binding to various Aβ peptides, including Ab40 (Talmard et al. Biochemistry 46, 13658-13666 (2007); Sacco et al. JBIC Journal of Biological Inorganic Chemistry 17, 531-541 (2012); Hatcher et al. The journal of physical chemistry B 112, 8160-8164 (2008)). In the current study, we used ITC to determine whether nickel can bind the Aβ40 peptide. The peptide (same used in ThT-based aggregation assays) was present in the sample cell at a concentration of 20 μM. Twenty injections of NiSO4 (1 mM solution, 5 μM increments in sample cell) were performed every 5 min under constant stirring (350 rpm) at 25° C., and the heat release was measured (FIG. 9). The heat release profile indicates Ni binding to the peptide (FIG. 9, top Panel).
Isothermal Titration Calorimetry. […] Briefly, 1 mg of lyophilized Aβ40 peptide (#A-1157-2, rPeptides) was resuspended with 1% NH4OH to a concentration of 250 μM, sonicated for 15-20 sec, before being diluted to a final concentration of 20 μM Aβ40 using ddH2O and TBS 10×, pH 7.4 (working buffer: NH4OH 0.2%, TBS 1×, pH 7.4 (“NTBS”)). […] All samples were degassed for 15 min at 25° C. before use. Titration was initiated using a program for 20 injections (2.38 μL each, every 5 min) with continuous stirring (350 rpm) at constant temperature (25° C.). ITC data were analyzed using NanoAnalyze 1.2 software (TA Instruments). Data obtained with the control experiment (Aβ40 peptide in sample cell, buffer in syringe) were subtracted from each experiment to account for any injection-related heat change.

MDR S. Typhimurium = assay: Galleria mellonella infection model; format: in vivo; settings: 5 μl of 250 mM DMG (approx. 0.38 mg) injected five to ten minutes prior to bacterial challenge
Experimental: (§1) Attempts to establish a reliable K. pneumoniae infection model in mice failed, so an alternate animal model was chosen.
(§2) Galleria mellonella (wax moth) experiments. Wax moth larvae were obtained from local pet stores, from two different suppliers: the bug company (Ham Lake, Minn.; www.ebugco.com) and Timberline (Marion, Ill.; www.timberlinefresh.com). Larvae were stored in wood shavings at 4° C. in the dark and used within two weeks after purchase. Only larvae weighing 300±50 mg were selected for the experiments. Groups of ten larvae were used for each experiment. The site of injection (last right or left proleg) was disinfected with ethanol 70% (vol/vol) before and after each injection. A 10 μL-Hamilton syringe fitted with a […] needle (Becton Dickinson, Franklin Lakes, N.J.) was used to inject 5 μL. After injection, larvae were kept in 9.2-cm Petri dishes at 37° C. in the dark with no food. Larvae were monitored daily for […] and mortality (as defined by change of pigmentation and absence of response following physical stimulation) was recorded. […] Bacterial suspensions were prepared as follows: cells were grown overnight in 5 mL of Mueller Hinton broth, harvested, washed once, and resuspended in sterile 0.8% NaCl to a final OD600 of 0.1 (approximately 10^8 CFU/mL, as determined by CFU counts on serially diluted samples).

MDR K. pneumoniae = assay: Galleria mellonella infection model; format: in vivo; settings: 5 μl of 250 mM DMG (approx. 0.38 mg) injected five to ten minutes prior to bacterial challenge
Experimental: as §1, §2

[2] = tested on: MDR K. pneumoniae (ATCC BAA2472); assay: DMG growth inhibition in liquid culture (CFU/mL); format: cell-based, Klebsiella pneumoniae
Experimental: Growth conditions. All strains were routinely grown on LB agar plates or in LB broth. For DMG-growth inhibition study, S. Typhimurium strains ATCC 14028 and ATCC 700408 were grown in M9 minimal medium (M9 minimal salts, 0.4% glucose, 2 mM MgSO4, 0.1 mM CaCl2), and 1 μg/mL thiamine, pH 7.2). K. pneumoniae was grown in “W-U” medium, modified from Bender et al. 1977 129:1001-1009, containing 60 mM K2HPO4, 33 mM KH2PO4, 0.4 mM MgSO4, 0.4% Glucose, and 5 mM urea (instead of KNO3), pH 7.4. Briefly, overnight cultures of S. Typhimurium and K. pneumoniae were harvested, spun at 14,000 rpm for five minutes, washed once with either M9 (S. Typhimurium) or W-U (K. pneumoniae) and resuspended in either M9 (S. Typhimurium) or W-U (K. pneumoniae). […] Cells were incubated for 24 hours at 37° C. with shaking at 250 rpm, then serially diluted in PBS and 5 μL of each dilution was spotted in triplicate on LB plate. Colony forming units (CFU) were counted after 16 hours at 37° C. Each growth experiment was done at least three times.

[3] = tested on: C. jejuni (strain NCTC 11168); assay: C. jejuni-chicken colonization experiment; format: in vivo, chickens
Experimental: Since chickens are natural hosts for C. jejuni, and chicken meat is one of the main sources of campylobacteriosis in humans, it was important to test the efficacy of DMG alone or in combination with copper in this animal model. Two independent trials were conducted, as described in FIG. 22. In both trials, the treatment was administered through ad libitum drinks, starting two to three days before C. jejuni inoculation (with strain NCTC 11168), and going through the end of each experiment. […] Nine days after inoculation with C. jejuni, chickens were euthanized, and their ceca were isolated for bacterial count. […] The treatment was administered two days before inoculation with C. jejuni, and chicken ceca were harvested eight days after inoculation.

[4] = Experiment 1, ad libitum CuSO4 (0.2 mM) + DMG (10 mM), total n=6, 9 days p.i.
[5] = Experiment 2, ad libitum CuSO4 (0.2 mM) + DMG (15 mM), total n=5, 8 days p.i.
[6] = Experiment 2, ad libitum DMG (15 mM), total n=7, 8 days p.i.
[7] = first trial, DMG (10 mM) combined with CuSO4 (0.2 mM)

Chain of Aβ40 peptide (P05067 672-711): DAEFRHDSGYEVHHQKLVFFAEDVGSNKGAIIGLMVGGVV

CC(=NO)C(C)=NO [DMG, dimethylglyoxime]
effect on growth (CFUs) ([1]; BHI plates, 5 mM DMG + CuSO4 1 μM to 500 μM, no detectable growth (detection limit: 200 CFUs)): bactericidal
effect on growth (CFUs, colony size) ([1]; BHI plates, 5 mM DMG, 24 hours): bacteriostatic
effect on growth ([1]; DMG (2 mM)/Cu (0.5 mM) combination): bactericidal
binding to Aβ40 peptide (ITC) (Aβ40 peptide): cannot bind to the peptide
survival rate of larvae (MDR S. Typhimurium): 60%
survival rate of larvae (MDR K. pneumoniae): 40%
effect on bacterial growth ([2]; DMG at 2.5 mM, 5 mM, or 7.5 mM): no measurable effect
inhibition at 10000 µM ([2]; Klebsiella pneumoniae, ATCCBAA2472, 24 h): > 100%
C. jejuni Average CFUs per g of cecum (x10^8) ([3]; Experiment 1, ad libitum CuSO4 (0.2 mM) + DMG (10 mM), 9 days p.i.): 1.12 x10^8 CFUs per g of cecum
Chickens Cj-free (n=) [3, 4]: 2
Chickens Colonized (n=) [3, 4]: 4
C. jejuni Average CFUs per g of cecum (x10^8) ([3]; Experiment 2, ad libitum CuSO4 (0.2 mM) + DMG (15 mM), 8 days p.i.): 1.99 x10^8 CFUs per g of cecum
Chickens Cj-free (n=) [3, 5]: 0
Chickens Colonized (n=) [3, 5]: 5
C. jejuni Average CFUs per g of cecum (x10^8) ([3]; Experiment 2, ad libitum DMG (15 mM), 8 days p.i.): 2.38 x10^8 CFUs per g of cecum
Chickens Cj-free (n=) [3, 6]: 1
Chickens Colonized (n=) [3, 6]: 6
chickens in which C. jejuni was not recovered ([3]; first trial, Cu-DMG treated group (n=6)): 33%
decrease in bacterial count in the cecum compared to the copper-only control [3, 7]: 5 fold
decrease in bacterial count in the cecum compared to the water-only control [3, 7]: 3 fold
decrease in bacterial burden compared to the water control ([3]; second trial, DMG (15 mM) combined with CuSO4 (0.2 mM)): approximately 3.5 fold
less bacterial colonization of the cecum compared to the water only control ([3]; second trial, DMG only (15 mM)): approximately 3 fold
